Assay results as given in the NIST ThermoML archive (doi:10.1021/je200369m).
Several values for one entry are separate records, joined by “and”; a condition that tells them apart may be missing. Identical values can stand only once.

Settings: for mass density: Fluid (supercritical or subcritical phases), Buoyancy - hydrostatic balance with magnetic suspension - two sinkers; for vapor or sublimation pressure: Liquid, Closed cell

C=C(F)C(F)(F)F [2,3,3,3-tetrafluoro-1-propene]
Settings	mass density [kg/m3]
232.01 K, 1003.6 kPa	1297.66
235.01 K, 1354.4 kPa	1290.57
240.01 K, 1309.7 kPa	1276.93
240.01 K, 5597.9 kPa	1288.72
245 K, 5368.7 kPa	1275.09
250 K, 2009.3 kPa	1251.5
250 K, 9475.2 kPa	1273.53
255 K, 5782.7 kPa	1249.79
260 K, 1001.4 kPa	1219.36
260 K, 9586.2 kPa	1248.32
265 K, 3824.7 kPa	1215.48
270 K, 1753.3 kPa	1192.46
270 K, 7264.8 kPa	1214.11
275 K, 4931.1 kPa	1190.99
280 K, 1780.9 kPa	1161.43
280 K, 8123.4 kPa	1189.71
285 K, 4675.9 kPa	1160.07
290 K, 1604.8 kPa	1127.36
290 K, 7579.1 kPa	1158.85
295 K, 4198.6 kPa	1126
300 K, 1079.2 kPa	1087.77
300 K, 6812.1 kPa	1124.85
305 K, 3364.3 kPa	1086.43
309.99 K, 5673.9 kPa	1085.35
310 K, 1004 kPa	1047.05
314.99 K, 2511.7 kPa	1041.01
319.99 K, 553.9 kPa	26.402
320 K, 973.2 kPa	51.726
320 K, 4518 kPa	1040.05
325 K, 1456.3 kPa	982.689
329.99 K, 574 kPa	26.306
330 K, 979.2 kPa	49.047
330 K, 985.9 kPa	49.464
330 K, 3108.2 kPa	981.791
335 K, 1592.5 kPa	92.726
335 K, 1798 kPa	932.524
335 K, 4770.8 kPa	980.976
340 K, 593.8 kPa	26.211
340 K, 980.9 kPa	46.55
340 K, 993.5 kPa	47.298
340 K, 1640.5 kPa	92.612
340 K, 1827.8 kPa	110.941
340 K, 3191.5 kPa	931.599
345 K, 4594.1 kPa	930.707
350 K, 613.2 kPa	26.12
350 K, 985.9 kPa	44.652
350 K, 1003 kPa	45.555
350 K, 1736.8 kPa	92.623
350 K, 2261.9 kPa	146.58
350 K, 2461 kPa	839.342
350 K, 6005.4 kPa	929.873
355 K, 2740.3 kPa	801.182
360 K, 632.4 kPa	26.029
360 K, 987.2 kPa	42.763
360 K, 1005.2 kPa	43.637
360 K, 1830.5 kPa	92.622
360 K, 2067 kPa	110.845
360 K, 2433.6 kPa	146.594
360 K, 2545.4 kPa	160.529
360 K, 2767.9 kPa	197.534
360 K, 3210.5 kPa	772.483
360 K, 3638.8 kPa	800.559
362 K, 2963.7 kPa	235.115
365 K, 991.9 kPa	42.073
365 K, 1876.6 kPa	92.619
365 K, 2516.7 kPa	146.549
365 K, 2892.6 kPa	197.483
365 K, 3086.7 kPa	243.237
365 K, 4553.7 kPa	799.933
368 K, 3184.3 kPa	243.231
370 K, 651.2 kPa	25.938
370 K, 993.7 kPa	41.326
370 K, 996.3 kPa	41.436
370 K, 2181.6 kPa	110.789
370 K, 2598.5 kPa	146.499
370 K, 2866.8 kPa	176.561
370 K, 3014.9 kPa	197.482
370 K, 3248.6 kPa	243.253
370 K, 3252.2 kPa	244.129
370 K, 5480.7 kPa	799.34
370.01 K, 1920.5 kPa	92.497
380 K, 667.9 kPa	25.765
380 K, 994.8 kPa	39.809
380 K, 2293.9 kPa	110.737
380 K, 3047.3 kPa	173.864
380 K, 3496.1 kPa	231.99
380 K, 6583.2 kPa	770.356
390 K, 670.7 kPa	25.062
390 K, 987.8 kPa	38.088
390 K, 2404.1 kPa	110.68
400 K, 683.2 kPa	24.785
400 K, 991.4 kPa	36.952
400 K, 2512.9 kPa	110.64

Settings	vapor or sublimation pressure
250 K	133.03 kPa and 133.37 kPa
260 K	197.44 kPa
270 K	283.41 kPa and 283.03 kPa and 283.48 kPa
280 K	395.91 kPa
290 K	538.95 kPa and 539.38 kPa and 539.42 kPa
300 K	718.68 kPa
309.99 K	938.57 kPa
310 K	939.28 kPa and 939.3 kPa
312 K	989.09 kPa
314 K	1040.9 kPa
316 K	1094.4 kPa
319.99 K	1206.8 kPa and 1207 kPa and 1206.4 kPa
320 K	1207.6 kPa and 1207.7 kPa
330 K	1529 kPa
340 K	1910.2 kPa
350 K	2361.4 kPa
355 K	2616.5 kPa
360 K	2893.8 kPa
362 K	3011.5 kPa
364 K	3133.6 kPa
366 K	3260.2 kPa
